Measured values from PubChem BioAssay AID274 (DTP/NCI, 2004).
Values joined by “and” are separate entries in the source; they are usually repeats but may differ in a detail not shown here. Identical values can stand only once. Inconclusive results and toxic doses are left out.

System: BDF1 mice, Lewis lung carcinoma iv, survival T/C
Assay: NCI In Vivo Anticancer Drug Screen. Data for tumor model Lewis Lung Carcinoma (intravenous) in B6D2F1 (BDF1) mice
Conditions: endpoint: median survival time, higher = longer survival
Description: The antitumor activity of compounds was measured in mice bearing transplantable tumors. Survival or tumor size were measured and the results are expressed as the measurement made in the treated group (T) divided by the measurement made in the vehicle treated control group (C). The tumor model used in this assay is Lewis Lung Carcinoma (intravenous) in B6D2F1 (BDF1) mice

[1] = dose: 6.25 mg/kg/injection, schedule: Q01DX009 (ip), vehicle: saline with Tween-80
[2] = dose: 12.5 mg/kg/injection, schedule: Q01DX009 (ip), vehicle: saline with Tween-80
[3] = dose: 12.5 mg/kg/injection, schedule: Q01DX009 (ip), vehicle: saline
[4] = dose: 25.0 mg/kg/injection, schedule: Q01DX009 (ip), vehicle: saline
[5] = dose: 50.0 mg/kg/injection, schedule: Q01DX009 (ip), vehicle: saline
[6] = dose: 100.0 mg/kg/injection, schedule: Q01DX009 (ip), vehicle: saline
[7] = dose: 6.25 mg/kg/injection, schedule: Q01DX009 (ip), vehicle: Klucel (hydroxypropylcellulose) (HPC)
[8] = dose: 12.5 mg/kg/injection, schedule: Q01DX009 (ip), vehicle: Klucel (hydroxypropylcellulose) (HPC)
[9] = dose: 25.0 mg/kg/injection, schedule: Q01DX009 (ip), vehicle: Klucel (hydroxypropylcellulose) (HPC)
[10] = dose: 25.0 mg/kg/injection, schedule: Q01DX009 (ip), vehicle: saline with Tween-80
[11] = dose: 50.0 mg/kg/injection, schedule: Q01DX009 (ip), vehicle: saline with Tween-80
[12] = dose: 100.0 mg/kg/injection, schedule: Q01DX009 (ip), vehicle: saline with Tween-80
[13] = dose: 200.0 mg/kg/injection, schedule: Q01DX009 (ip), vehicle: saline with Tween-80

O=c1cc(CCl)[nH]nc1CCl
T/C (dose: 3.12 mg/kg/injection, schedule: Q01DX009 (ip), vehicle: saline with Tween-80): 98 % of control | T/C [1]: 96 % of control | T/C [2]: 96 % of control

Cc1ccccc1N(CC1CO1)CC1CO1 (stereo not given)
T/C [3]: 106 % of control | T/C [4]: 103 % of control | T/C [5]: 109 % of control | T/C [6]: 100 % of control | T/C (dose: 200.0 mg/kg/injection, schedule: Q01DX009 (ip), vehicle: saline): 110 % of control

C=C(Cl)C(=NC(C)(C)C)Nc1ccccc1C
T/C (dose: 3.12 mg/kg/injection, schedule: Q01DX009 (ip), vehicle: Klucel (hydroxypropylcellulose) (HPC)): 100 % of control | T/C [7]: 110 % of control | T/C [8]: 107 % of control | T/C [9]: 108 % of control

O=C(NO)c1cc(O)c(O)c(O)c1
T/C (dose: 25.0 mg/kg/injection, schedule: Q01DX009 (ip), vehicle: water): 100 % of control | T/C (dose: 50.0 mg/kg/injection, schedule: Q01DX009 (ip), vehicle: water): 100 % of control | T/C (dose: 100.0 mg/kg/injection, schedule: Q01DX009 (ip), vehicle: water): 97 % of control | T/C (dose: 200.0 mg/kg/injection, schedule: Q01DX009 (ip), vehicle: water): 97 % of control

C(COCCOCC1CO1)OCCOCC1CO1 (stereo not given)
T/C [10]: 107 % of control | T/C [11]: 104 % of control | T/C [12]: 98 % of control | T/C [13]: 112 % of control

COc1cc2c(c(OC)c1O)-c1ccc(OC)c(=O)cc1[C@@H](NC(=O)C(F)(F)F)CC2
T/C (dose: 0.62 mg/kg/injection, schedule: Q01DX009 (ip), vehicle: Klucel (hydroxypropylcellulose) (HPC)): 101 % of control | T/C (dose: 1.25 mg/kg/injection, schedule: Q01DX009 (ip), vehicle: Klucel (hydroxypropylcellulose) (HPC)): 87 % of control | T/C (dose: 2.5 mg/kg/injection, schedule: Q01DX009 (ip), vehicle: Klucel (hydroxypropylcellulose) (HPC)): 88 % of control

Nc1nc(/C=C(/O)c2ccccc2)c2ncn(C3OC(CO)C(O)C3O)c2n1 (stereo not given)
T/C [3]: 109 % of control | T/C [4]: 107 % of control | T/C [5]: 102 % of control | T/C [6]: 104 % of control

Cc1ncc([N+](=O)[O-])n1CCO
T/C (dose: 18.75 mg/kg/injection, schedule: Q01DX009 (ip), vehicle: Klucel (hydroxypropylcellulose) (HPC)): 93 % of control | T/C (dose: 37.5 mg/kg/injection, schedule: Q01DX009 (ip), vehicle: Klucel (hydroxypropylcellulose) (HPC)): 100 % of control | T/C (dose: 75.0 mg/kg/injection, schedule: Q01DX009 (ip), vehicle: Klucel (hydroxypropylcellulose) (HPC)): 95 % of control | T/C (dose: 150.0 mg/kg/injection, schedule: Q01DX009 (ip), vehicle: Klucel (hydroxypropylcellulose) (HPC)): 100 % of control | T/C (dose: 300.0 mg/kg/injection, schedule: Q01DX009 (ip), vehicle: Klucel (hydroxypropylcellulose) (HPC)): 91 % of control | T/C (dose: 600.0 mg/kg/injection, schedule: Q01DX009 (ip), vehicle: Klucel (hydroxypropylcellulose) (HPC)): 102 % of control

CCN1CSC(=S)N(CC)C1
T/C [10]: 103 % of control | T/C [11]: 101 % of control | T/C [12]: 99 % of control

CC(C)NNC(=O)c1ccncc1
T/C (dose: 19.4 mg/kg/injection, schedule: Q01DX007 (ip), vehicle: Klucel (hydroxypropylcellulose) (HPC)): 95 % of control | T/C (dose: 32.4 mg/kg/injection, schedule: Q01DX007 (ip), vehicle: Klucel (hydroxypropylcellulose) (HPC)): 91 % of control | T/C (dose: 54.0 mg/kg/injection, schedule: Q01DX007 (ip), vehicle: Klucel (hydroxypropylcellulose) (HPC)): 95 % of control | T/C (dose: 90.0 mg/kg/injection, schedule: Q01DX007 (ip), vehicle: Klucel (hydroxypropylcellulose) (HPC)): 96 % of control | T/C (dose: 150.0 mg/kg/injection, schedule: Q01DX007 (ip), vehicle: Klucel (hydroxypropylcellulose) (HPC)): 91 % of control

CCCCCCCCCCCCCCCCS(=O)CC(O)COC(=O)c1ccc(C(=O)OCC(O)CS(=O)CCCCCCCCCCCCCCCC)cc1 (stereo not given)
T/C (dose: 12.5 mg/kg/injection, schedule: Q01DX009 (ip), vehicle: saline + Tween-80 + alcohol): 88 % of control | T/C (dose: 25.0 mg/kg/injection, schedule: Q01DX009 (ip), vehicle: saline + alcohol): 95 % of control | T/C (dose: 50.0 mg/kg/injection, schedule: Q01DX009 (ip), vehicle: saline + Tween-80 + alcohol): 95 % of control | T/C (dose: 100.0 mg/kg/injection, schedule: Q01DX009 (ip), vehicle: saline + Tween-80 + alcohol): 92 % of control | T/C (dose: 100.0 mg/kg/injection, schedule: Q01DX009 (ip), vehicle: saline + alcohol): 101 % of control | T/C (dose: 200.0 mg/kg/injection, schedule: Q01DX009 (ip), vehicle: saline + Tween-80 + alcohol): 99 % of control | T/C (dose: 200.0 mg/kg/injection, schedule: Q01DX009 (ip), vehicle: saline + alcohol): 218 % of control

O=C(O)c1ccc(C(=O)O)c(C(=O)O)c1.[NH-]C1CCCCC1[NH-].[Pt+2]
T/C (dose: 0.39 mg/kg/injection, schedule: Q01DX009 (ip), vehicle: sodium bicarbonate): 90 % of control | T/C (dose: 0.78 mg/kg/injection, schedule: Q01DX009 (ip), vehicle: sodium bicarbonate): 100 % of control | T/C (dose: 1.56 mg/kg/injection, schedule: Q01DX009 (ip), vehicle: sodium bicarbonate): 112 % of control | T/C (dose: 3.12 mg/kg/injection, schedule: Q01DX009 (ip), vehicle: sodium bicarbonate): 122 % of control

CN(C)CCNc1ccc([N+](=O)[O-])c2sc3ccccc3c(=O)c12
T/C [1]: 106 % of control | T/C [2]: 109 % of control and 112 % of control | T/C [10]: 104 % of control | T/C [11]: 153 % of control

COC(=O)Nc1cccc(-c2nc3ccc(NC(=O)OC)cc3c(=O)n2-c2ccccc2)c1
T/C (dose: 8.0 mg/kg/injection, schedule: Q01DX009 (ip), vehicle: Klucel (hydroxypropylcellulose) (HPC)): 95 % of control | T/C (dose: 8.0 mg/kg/injection, schedule: Q01DX009 (ip), vehicle: saline): 92 % of control | T/C (dose: 16.0 mg/kg/injection, schedule: Q01DX009 (ip), vehicle: Klucel (hydroxypropylcellulose) (HPC)): 92 % of control | T/C (dose: 16.0 mg/kg/injection, schedule: Q01DX009 (ip), vehicle: saline): 97 % of control | T/C (dose: 32.0 mg/kg/injection, schedule: Q01DX009 (ip), vehicle: Klucel (hydroxypropylcellulose) (HPC)): 99 % of control | T/C (dose: 32.0 mg/kg/injection, schedule: Q01DX009 (ip), vehicle: saline): 109 % of control | T/C (dose: 64.0 mg/kg/injection, schedule: Q01DX009 (ip), vehicle: Klucel (hydroxypropylcellulose) (HPC)): 109 % of control | T/C (dose: 64.0 mg/kg/injection, schedule: Q01DX009 (ip), vehicle: saline): 108 % of control | T/C (dose: 128.0 mg/kg/injection, schedule: Q01DX009 (ip), vehicle: saline): 115 % of control

COC1NC(=O)NC(=O)C1=[N+]=[N-] (stereo not given)
T/C (dose: 2.0 mg/kg/injection, schedule: Q01DX009 (ip), vehicle: water): 96 % of control | T/C (dose: 4.0 mg/kg/injection, schedule: Q01DX009 (ip), vehicle: water): 98 % of control | T/C (dose: 8.0 mg/kg/injection, schedule: Q01DX009 (ip), vehicle: water): 100 % of control

CN(C)c1nc(N(C)C)nc(N(C)C)n1
T/C [11]: 99 % of control | T/C (dose: 59.0 mg/kg/injection, schedule: Q04DX003 (ip), vehicle: saline): 102 % of control | T/C (dose: 88.0 mg/kg/injection, schedule: Q04DX003 (ip), vehicle: saline): 97 % of control | T/C [12]: 154 % of control | T/C (dose: 133.0 mg/kg/injection, schedule: Q04DX003 (ip), vehicle: Klucel (hydroxypropylcellulose) (HPC)): 90 % of control | T/C (dose: 133.0 mg/kg/injection, schedule: Q04DX003 (ip), vehicle: saline): 101 % of control and 109 % of control | T/C [13]: 92 % of control | T/C (dose: 200.0 mg/kg/injection, schedule: Q04DX003 (ip), vehicle: Klucel (hydroxypropylcellulose) (HPC)): 114 % of control | T/C (dose: 200.0 mg/kg/injection, schedule: Q04DX003 (ip), vehicle: saline): 96 % of control and 105 % of control | T/C (dose: 300.0 mg/kg/injection, schedule: Q04DX003 (ip), vehicle: saline): 95 % of control and 105 % of control | T/C (dose: 450.0 mg/kg/injection, schedule: Q04DX003 (ip), vehicle: saline): 104 % of control | T/C (dose: 675.0 mg/kg/injection, schedule: Q04DX003 (ip), vehicle: saline): 105 % of control

COc1ccc2[nH]c3c(c2c1)CCNC3CC(C)CCC=C(C)C (stereo not given)
T/C [7]: 116 % of control | T/C [8]: 98 % of control | T/C [9]: 102 % of control | T/C (dose: 50.0 mg/kg/injection, schedule: Q01DX009 (ip), vehicle: Klucel (hydroxypropylcellulose) (HPC)): 95 % of control | T/C (dose: 100.0 mg/kg/injection, schedule: Q01DX009 (ip), vehicle: Klucel (hydroxypropylcellulose) (HPC)): 107 % of control
